Nine compounds from US20210198269A1, “INHIBITORS OF GLUCOSE TRANSPORTERS (GLUTs)” (LEAD DISCOVERY CENTER GMBH, priority 2018, published 2021) can be followed below.

Format in all cases: cell-based
The target in one test is T1, GLUT2 (Homo sapiens, UniProt P11168).
T1 sequence (P11168 1-524): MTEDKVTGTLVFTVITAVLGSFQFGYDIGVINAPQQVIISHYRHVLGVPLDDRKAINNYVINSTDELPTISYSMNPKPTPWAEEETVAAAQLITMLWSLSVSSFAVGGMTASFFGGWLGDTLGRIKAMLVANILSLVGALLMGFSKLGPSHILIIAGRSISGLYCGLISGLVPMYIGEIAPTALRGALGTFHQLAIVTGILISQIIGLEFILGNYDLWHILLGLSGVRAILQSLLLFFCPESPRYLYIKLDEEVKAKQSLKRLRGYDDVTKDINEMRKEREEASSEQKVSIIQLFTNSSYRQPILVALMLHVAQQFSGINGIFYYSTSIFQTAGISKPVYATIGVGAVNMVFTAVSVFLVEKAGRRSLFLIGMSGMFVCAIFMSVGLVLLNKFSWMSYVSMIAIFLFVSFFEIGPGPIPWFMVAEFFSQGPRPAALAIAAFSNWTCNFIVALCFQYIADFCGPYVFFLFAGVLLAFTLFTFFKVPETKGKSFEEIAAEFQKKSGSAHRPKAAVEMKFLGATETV
In words: GLUT2 transporter activity assay in CHO-hGLUT2 cells (indirect, intracellular ATP levels). The following applies: CHO-hGLUT2 cell line; read-out: GLUT2 inhibitory activity (IC50). From the text:
(§1) GLUT 1, 2, 3 and 4 Transporter Activity Assays
(§2) Assays were based on the specificity assays reported by Kapoor et al., Proceedings of the National Academy of Sciences 2016, 113 (17) 4711-4716. For GLUT1, GLUT2, GLUT3 and GLUT4 specificity testing DLD1, CHO-hGLUT2, DLD-1-GLUT1−/− and CHO-hGLUT4 cell lines were used.
Example 8-3: Indirect Measurement of GLUT2 (SLC2A2) Activity by Quantification of Intracellular ATP Levels
A combination of small-molecule inhibitors of mitochondrial electron transport chain and glucose catabolism synergistically suppress ATP production and impair cellular viability (Ulanovskaya et al., 2008, 2011; Liu, et al. 2001). We therefore used CHOK1 cells overexpressing SLC2A2 (CHOK1-SLC2A2) in combination with an oxidative phosphorylation inhibitor (Rotenon) to identify GLUT2 inhibitors. CHOK1-SLC2A2 cells were purchased from creative biogene (catNo: CSC-SC014484) and maintained in RPMI1640 supplemented with 10% FBS and 2 mM L-Glutamine. For the Glut2-ATP-Assay, 7,500 cells were seeded in black, clear bottom 384-well plates directly in glucose- and phenolred-free RPMI1640 medium supplemented with 1% FCS and 2 mM L-glutamine and cultured overnight to reduce intracellular ATP levels. Next day, cells were washed and incubated with […] and compounds or DMSO and 2.5 mM fructose in glucose- and phenolred-free RPMI1640 medium for 40 min. The CellTiter-Glo® Luminescence Viability Assay from Promega was used to measure ATP levels. Luminescence was measured with a Victor Multilabel plate reader (Perkin Elmer). Blank values were subtracted from all readings and values were normalized to the DMSO control.

Another test concerns the target T2, GLUT1 (Homo sapiens, UniProt P11166).
T2 construct: host or cells: DLD-1 (DLD1) cells
T2 sequence (P11166 1-492): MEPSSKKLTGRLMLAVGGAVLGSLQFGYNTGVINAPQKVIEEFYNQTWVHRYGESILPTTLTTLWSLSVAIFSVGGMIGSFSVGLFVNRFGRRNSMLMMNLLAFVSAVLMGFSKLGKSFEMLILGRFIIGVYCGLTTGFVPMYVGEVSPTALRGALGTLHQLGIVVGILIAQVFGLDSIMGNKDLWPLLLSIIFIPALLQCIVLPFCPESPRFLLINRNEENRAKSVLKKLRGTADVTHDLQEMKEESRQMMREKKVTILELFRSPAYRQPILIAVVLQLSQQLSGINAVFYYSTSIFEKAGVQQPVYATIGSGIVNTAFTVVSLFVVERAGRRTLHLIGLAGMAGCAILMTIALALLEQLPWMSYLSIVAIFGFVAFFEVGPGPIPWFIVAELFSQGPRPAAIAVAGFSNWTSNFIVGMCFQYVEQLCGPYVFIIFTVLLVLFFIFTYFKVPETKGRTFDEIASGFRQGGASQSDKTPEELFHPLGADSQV
In words: GLUT1 transporter activity assay (2-DG uptake) in DLD1 cells. The following applies: DLD1 cell line; read-out: GLUT1 inhibitory activity (IC50).
Text: as §1, §2
(§3) Assay protocols for 2-deoxy-Glucose (2-DG) Uptake Assay with DLD1 or DLD1-Glut1(−/−) cells or 7,000 CHOK1-SLC2A4 cells lines:
(§4) 14,000 DLD1 or DLD1-Glut1(−/−) cells or 7,000 CHOK1-SLC2A4 cells were seeded in black, clear bottom 384-well plates in glucose- and phenolred-free RPMI1640 medium supplemented with 1% FCS and 2 mM L-glutamine and allowed to attach overnight. Next day, cells were washed and incubated with compounds or DMSO and 1 mM 2-DG in glucose- and phenolred-free RPMI1640 medium for 30 min. Cells were then washed and lysed in 0.06 M HCl and 1% CHAPS for 15 min at 65° C. The amount of 2-DG in the lysate was determined by means of enzyme-coupled assay. For this 16 U/mL glucose-6-phosphate dehydrogenase, 0.2 U/mL diaphorase, 0.1 mM NADP^+ and 10 μM resazurin were added to the lysates. Resorufin fluorescence was determined as a measure of 2-DG uptake at ex/em 535/590 nm with a Victor Multilabel plate reader (Perkin Elmer). Blank values were subtracted from all readings and values were normalized to the DMSO control.

Another test deals with T3, GLUT3 (Homo sapiens, UniProt P11169).
T3 construct: host or cells: DLD-1-GLUT1(-/-) cells
T3 sequence (P11169 1-496): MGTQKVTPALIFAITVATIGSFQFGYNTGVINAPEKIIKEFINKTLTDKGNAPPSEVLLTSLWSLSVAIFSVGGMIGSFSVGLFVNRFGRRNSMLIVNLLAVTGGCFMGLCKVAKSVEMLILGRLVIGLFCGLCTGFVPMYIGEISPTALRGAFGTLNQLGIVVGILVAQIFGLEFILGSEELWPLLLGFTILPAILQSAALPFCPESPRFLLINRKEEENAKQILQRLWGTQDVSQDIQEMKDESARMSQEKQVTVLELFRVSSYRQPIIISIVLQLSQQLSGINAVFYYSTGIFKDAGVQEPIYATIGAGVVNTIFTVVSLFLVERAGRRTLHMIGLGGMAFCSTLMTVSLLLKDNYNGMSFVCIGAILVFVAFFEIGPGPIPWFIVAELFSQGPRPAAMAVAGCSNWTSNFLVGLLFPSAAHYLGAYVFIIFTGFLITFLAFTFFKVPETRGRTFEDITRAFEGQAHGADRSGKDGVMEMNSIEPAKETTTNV
In words: GLUT3 transporter activity assay (2-DG uptake) in DLD-1-GLUT1-/- cells. Conditions: DLD-1-GLUT1-/- cell line; read-out: GLUT3 inhibitory activity (IC50).
Text: as §1, §2, §3, §4

A further test addresses T4, GLUT4 (Homo sapiens, UniProt P14672).
T4 sequence (P14672 1-509): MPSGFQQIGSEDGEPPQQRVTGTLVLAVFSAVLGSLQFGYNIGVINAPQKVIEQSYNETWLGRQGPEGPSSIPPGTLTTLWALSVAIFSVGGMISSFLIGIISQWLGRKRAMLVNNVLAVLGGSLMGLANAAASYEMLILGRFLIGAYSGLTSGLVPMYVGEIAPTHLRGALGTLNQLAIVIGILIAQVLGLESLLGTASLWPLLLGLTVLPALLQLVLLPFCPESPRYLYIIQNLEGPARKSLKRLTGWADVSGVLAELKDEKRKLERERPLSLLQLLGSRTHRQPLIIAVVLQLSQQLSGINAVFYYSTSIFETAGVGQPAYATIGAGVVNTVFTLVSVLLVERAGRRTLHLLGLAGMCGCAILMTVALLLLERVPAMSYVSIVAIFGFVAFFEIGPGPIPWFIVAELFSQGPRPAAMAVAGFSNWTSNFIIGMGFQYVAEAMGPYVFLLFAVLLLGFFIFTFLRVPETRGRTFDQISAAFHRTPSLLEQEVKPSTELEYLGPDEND
Kind of test: GLUT4 transporter activity assay (2-DG uptake) in CHO-hGLUT4 cells. Conditions: CHO-hGLUT4 cell line; read-out: GLUT4 inhibitory activity (IC50). On the procedure:
CHOK1-SLC2A4 cells were generated by transfection of CHOK1 cells with pCMV6-Entry-GLUT4 (Origene #SC125240) using Lipofectamin2000 according to the supplier's instructions. Briefly, 1.5E5 cells/well CHOK1 cells were seeded in 6-well cell culture plates. After overnight incubation, DNA-lipid complexes (2 μg plasmid DNA, DNA:lipid ratio 1:10) were prepared in OptiMEM and then added to the cells. After 5 days incubation, 800 μg G418 was added to the culture medium to generate a stable polyclone. For monoclone selection, single cells were re-plated in 96-well plates, expanded and selected by transgene overexpression and functional performance.
as §1, §2, §3, §4

The term IC50 denotes the midpoint of a concentration-inhibition curve. With `Cc1ccc(CCNC(=O)c2cccc(N3C(=O)NC4CC3(C)Oc3c(OCc5ccccc5)cccc34)c2)cc1` (stereo not drawn) [Compound A01, 3-(10-(Benzyloxy)-2-methyl-4-oxo-5,6-dihydro-2H-2,6-methanobenzo[g][1,3,5]oxadiazocin-3(4H)-yl)-N-(4-methylphenethyl)benzamide], the half-inhibitory concentration (IC50) is 10 to 25 µM on GLUT2, at most 0.3 µM on GLUT1, at most 0.3 µM on GLUT3 and 10 to 25 µM on GLUT4.
Regarding `Cc1ccc(CCNC(=O)c2cccc(N3C(=O)NC4CC3(C)Oc3c(OCc5cccnc5)cccc34)c2)cc1` (stereo not drawn) [Compound A10, 3-(2-Methyl-4-oxo-10-(pyridin-3-ylmethoxy)-5,6-dihydro-2H-2,6-methanobenzo[g][1,3,5]oxadiazocin-3(4H)-yl)-N-(4-methylphenethyl)benzamide], the half-maximal inhibitory concentration (IC50) on GLUT2 is 4 to 10 µM; at GLUT1, at most 0.3 µM; on GLUT3 it was 0.3 to 1 µM; at GLUT4, 4 to 10 µM.
In the case of `Cc1ccc(CCNC(=O)c2cccc(N3C(=O)NC4CC3(C)Oc3c(OCc5ccccn5)cccc34)c2)cc1` (stereo not drawn) [Compound A11, 3-(2-Methyl-4-oxo-10-(pyridin-2-ylmethoxy)-5,6-dihydro-2H-2,6-methanobenzo[g][1,3,5]oxadiazocin-3(4H)-yl)-N-(4-methylphenethyl)benzamide], the IC50 on GLUT2 is 4 to 10 µM; on GLUT1 it was at most 0.3 µM; at GLUT3, at most 0.3 µM; on GLUT4 it was 1 to 4 µM.
Regarding `Cc1ccc(CCNC(=O)c2cccc(N3C(=O)NC4CC3(C)Oc3c(OCc5c(C)noc5C)cccc34)c2)cc1` (stereo not drawn) [Compound A15, 3-(10-((3,5-Dimethylisoxazol-4-yl)methoxy)-2-methyl-4-oxo-5,6-dihydro-2H-2,6-methanobenzo[g][1,3,5]oxadiazocin-3(4H)-yl)-N-(4-methylphenethyl)benzamide], the half-maximal inhibitory concentration (IC50) lay within 10 to 25 µM at GLUT2, 0.3 to 1 µM at GLUT1, 0.3 to 1 µM on GLUT3 and 4 to 10 µM at GLUT4.
As to `Cc1ccc(CCNC(=O)c2cccc(N3C(=O)NC4CC3(C)Oc3c(OCc5nccn5C)cccc34)c2)cc1` (stereo not drawn) [Compound A16, 3-(2-Methyl-10-((1-methyl-1H-imidazol-2-yl)methoxy)-4-oxo-5,6-dihydro-2H-2,6-methanobenzo[g][1,3,5]oxadiazocin-3(4H)-yl)-N-(4-methylphenethyl)benzamide], the half-maximal inhibitory concentration (IC50) on GLUT2 was over 25 µM; at GLUT1, 1 to 4 µM; at GLUT4, over 25 µM.
Consider `CC12CC(NC(=O)N1c1cccc(C(=O)NCCOc3ccccc3)c1)c1cccc(OCc3ccccc3)c1O2` (stereo not drawn) [Compound A21, 3-(10-(benzyloxy)-2-methyl-4-oxo-5,6-dihydro-2H-2,6-methanobenzo[g][1,3,5]oxadiazocin-3(4H)-yl)-N-(2-phenoxyethyl)benzamide], for which the IC50 was over 25 µM on GLUT2, 1 to 4 µM at GLUT1, 1 to 4 µM at GLUT3 and 10 to 25 µM at GLUT4.
Turning to `Cc1ccc(CCN(C)C(=O)c2cccc(N3C(=O)NC4CC3(C)Oc3c(OCc5ccccc5)cccc34)c2)cc1` (stereo not drawn) [Compound A23, 3-(10-(benzyloxy)-2-methyl-4-oxo-5,6-dihydro-2H-2,6-methanobenzo[g][1,3,5]oxadiazocin-3(4H)-yl)-N-methyl-N-(4-methylphenethyl)benzamide], the IC50 at GLUT2 was over 25 µM; on GLUT1 it was 0.3 to 1 µM; on GLUT3 it was 0.3 to 1 µM; on GLUT4, 4 to 10 µM.
On to `CCNC(=O)c1cccc(N2C(=O)NC3CC2(C)Oc2c(OCc4ccccc4)cccc23)c1` (stereo not drawn) [Compound A38, 3-(10-(benzyloxy)-2-methyl-4-oxo-5,6-dihydro-2H-2,6-methanobenzo[g][1,3,5]oxadiazocin-3(4H)-yl)-N-(ethyl)benzamide], for which the half-maximal inhibitory concentration (IC50) on GLUT1 was 10 to 25 µM; on GLUT3, 4 to 10 µM; on GLUT4 it was 10 to 25 µM.
As for `CC12CC(NC(=O)N1c1cccc(C(=O)NCc3ccccc3)c1)c1cccc(OCc3ccccc3)c1O2` (stereo not drawn) [Compound A39, 3-(10-(benzyloxy)-2-methyl-4-oxo-5,6-dihydro-2H-2,6-methanobenzo[g][1,3,5]oxadiazocin-3(4H)-yl)-N-(benzyl)benzamide], the 50% inhibitory concentration (IC50) at GLUT1 lay in the range of 10 to 25 µM; on GLUT3, 4 to 10 µM; on GLUT4, 10 to 25 µM.
